Data reported in patent US7517889B2, “2,6-substituted-4-monosubstitutedamino-pyrimidine as prostaglandin D2 receptor antagonists” (Aventis Pharmaceuticals, Inc., priority 2004, dated 2009).
pIC50: −log10 of the molar value. Counter-ions that a name gives are not always drawn.

target: T1, DP receptor (Homo sapiens, UniProt Q13258); assay: SPA cAMP assay in human LS174 T cells (human DP functional assay); format: cell-based; settings: inhibition of PGD2 (15 nM final) stimulated cAMP, LS174T cells expressing endogenous DP receptor
T1 construct: the human cell line LS174T, which expresses the endogenous DP receptor; endogenous in cells; host or cells: LS174T human cell line
T1 sequence (Q13258 1-359): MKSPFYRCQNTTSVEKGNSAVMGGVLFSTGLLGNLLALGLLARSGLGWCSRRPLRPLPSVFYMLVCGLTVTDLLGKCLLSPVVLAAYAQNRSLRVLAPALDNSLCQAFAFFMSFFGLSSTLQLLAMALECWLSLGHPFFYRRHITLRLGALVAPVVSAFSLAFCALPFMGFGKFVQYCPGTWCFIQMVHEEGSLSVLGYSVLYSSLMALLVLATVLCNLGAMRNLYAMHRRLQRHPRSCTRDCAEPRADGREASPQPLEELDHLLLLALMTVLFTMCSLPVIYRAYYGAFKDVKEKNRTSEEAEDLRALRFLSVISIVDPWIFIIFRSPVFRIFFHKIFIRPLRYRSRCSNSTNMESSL
Protocol: The inhibitory effects of the compounds according to the invention are assessed in a human DP functional assay. A cAMP assay is employed using the human cell line LS174T, which expresses the endogenous DP receptor.
Protocol for SPA cAMP Assay in Human LS174 T Cells
• 1) Add equal volumes of tracer, antiserum and SPA anti-rabbit reagent to a bottle, ensuring that a sufficient volume of this mixture is prepared for the desired number of wells (150 μL/well). • 2) Mix thoroughly. • 3) This immunoreagent solution should be freshly prepared before each assay and not re-used.
Add 50 μL of […] IBMX into 100 mL PBS to make a final concentration of 100 μM and sonicate at 30° C. for 20 minutes.
Before each assay, it is freshly prepared. Add 3 μL of 10 mM stock solution to 20 mL DMSO, mix it thoroughly, and transfer 10 mL to 40 mL PBS.
Compound dilution is carried out in Biomex 2000 (Beckman) using Method 1_cAMP DP 11 points.
5 μL of each compound from the 10 mM stock compound plates is transferred to the wells of a 96-well plate respectively as below.
Fill the plate with 45 μL of DMSO except column 7 is filled with 28 μL DMSO. Pipette column 1 thoroughly, and transfer 12 μL into column 7 parallel. Perform 1:10 serial dilution from column 1 to column 6 and from column 7 to column 11 by transfer 5 μL to 45 μL DMSO to make following concentrations:
Fill a new 96-well plate with 247.5 μL of compound dilution buffer. Transfer 2.5 μL of serially diluted compounds from above plate to the new plate (1:100 dilution) as following:
Cell Growth • 1. […] Remove growth medium from cells. Cells in T165 flask are washed twice with 4 mL Trypsin followed by incubation at 37° C. and 5% CO2 for 3 minutes. • 4. Add 10 mL of medium and pipette thoroughly to separate the cells and count the cells. • 5. […] Assay Procedure Day 1 • Seed 45,000 cells/well in 200 μL medium in 96-well plates. Incubate the cell plate at 37° C., 5% CO2 and 95% humidity overnight. Day 2 • 1. Perform compound dilution. • 2. Prepare assay buffer, lysis buffer 1 & 2, PGD2 and standard. • 3. Aspirate media from the cells and add 100 μL of compound solution using Zymark Sciclone-ALH/FD protocol cAMP DP. • 4. Incubate the cells at 37° C., 5% CO2 and 95% humidity for 15 minutes. • 5. […] Aspirate media from the cells and add 50 μL of lysis buffer 1 using Zymark protocol cAMP DP lysis, and incubate at room temperature with shaking for 30 minutes. • 7. Add 150 μL immunoreagent to all wells (a total volume of 200 μL/well). • 8. Seal the plates and shake for 2 minutes, put into the chamber of the Wallac microtitre plate μ scintillation counter for 16 hours. […] Data Processing Set up standard curve of cAMP versus CPM.
The cAMP concentrations (pmol/mL) of unknown samples are calculated from a standard curve of cAMP versus CPM. % inhibition is calculated using the following formula: […]

Row | SMILES | pIC50
1 | COCc1nc(NCCc2ccc(Cl)cc2Cl)cc(-c2cccc(C(C)(C)C(=O)O)c2)n1 [Example 85, 2-(3-{6-[2-(2,4-Dichloro-phenyl)-ethylamino]-2-methoxymethyl-pyrimidin-4-yl}-phenyl)-2-methyl-propionic acid] | 8.57
2 | COc1ccc(CCNc2cc(-c3ccc(/C(C)=N\O)s3)nc(OC)n2)cc1 [Example 26(e), 1-(5-{2-Methoxy-6-[2-(4-methoxy-phenyl)-ethylamino]-pyrimidin-4-yl}-thiophen-2-yl)-ethanone oxime] | 9.10
3 | COc1ccc(CCNc2cc(-c3ccc(OC)nc3)nc(OC)n2)cc1 [Example 35(o), [2-Methoxy-6-(6-methoxy-pyridin-3-yl)-pyrimidin-4-yl]-[12-(4-methoxy-phenyl)-ethyl]-amine] | 8.77
4 | CC(C)(C(=O)O)c1cccc(-c2cc(NCCc3ccc(Cl)cc3Cl)nc(CO)n2)c1 [Example 86, 2-(3-{6-[2-(2,4-dichloro-phenyl)-ethylamino]-2-hydroxymethyl-pyrimidin-4-yl}-phenyl)-2-methyl-propionic acid] | 7.15
5 | COc1nc(NCCc2ccc(Cl)cc2Cl)cc(-c2ccc3nc(NC(C)=O)sc3c2)n1 [Example 94, N-(6-{6-[2-(2,4-Dichloro-phenyl)-ethylamino]-2-methoxy-pyrimidin-4-yl}-benzothiazol-2-yl)-acetamide] | 7.96
6 | COc1nc(NC(C)Cc2ccc(Cl)cc2)cc(-c2ccc(OC)c(OC)c2)n1 (stereo not shown) [Example 43(a), [2-(4-Chloro-phenyl)-1-methyl-ethyl]-[6-(3,4-dimethoxy-phenyl)-2-methoxy-pyrimidin-4-yl]-amine] | 5.76
7 | COc1ccc(CCNc2cc(-c3cn[nH]c3)nc(OC)n2)cc1 [Example 8(f), [2-(4-Methoxy-phenyl)-ethyl]-[2-methoxy-6-(1H-pyrazol-4-yl)-pyrimidin-4-yl]-amine] | 7.59
8 | COc1nc(NCCc2c(F)cccc2Cl)cc(-c2cccc(COCC(=O)O)c2)n1 [Example 56, (3-{6-[2-(2-Chloro-6-fluoro-phenyl)-ethylamino]-2-methoxy-pyrimidin-4-yl}-benzyloxy)-acetic acid] | 9.22
9 | COc1cccc(-c2cc(NCCc3cccs3)nc(OC)n2)c1 [Example 43(e), [2-Methoxy-6-(3-methoxy-phenyl)-pyrimidin-4-yl]-(2-thiophen-2-yl-ethyl)-amine hydrochloride] | 8.01
10 | COc1ccc(CCNc2cc(-c3ccc(C)s3)nc(OC)n2)cc1 [Example 8(e), [2-Methoxy-6-(5-methyl-thiophen-2-yl)-pyrimidin-4-yl]-[2-(4-methoxy-phenyl)-ethyl]-amine] | 8.09
11 | COc1nc(NCCc2ccc(Cl)cc2Cl)cc(-c2cccc(C(C)(C)c3nnn[nH]3)c2)n1 [Example 47, hydrochloride] | 9.40
12 | COc1ccc(C(C)(C)CNc2cc(-c3cccc(OC)c3)nc(OC)n2)cc1 [Example 29, [2-Methoxy-6-(3-methoxy-phenyl)-pyrimidin-4-yl]-[2-(4-methoxy-phenyl)-2-methyl-propyl]-amine] | 6.10
13 | COc1ccc(CCNc2cc(-c3cccc(OC)c3)nc(N(C)C)n2)cc1 [Example 19, 6-(3-Methoxy-phenyl)-N*4*-[2-(4-methoxy-phenyl)-ethyl]-N*2*,N*2*-dimethyl-pyrimidine-2,4-diamine hydrochloride] | 5.33
14 | COc1nc(NCCc2ccc(Cl)cc2Cl)cc(-c2cccc(C(=O)OCCN3CCN(C)CC3)c2)n1 [Example 76, 3-{6-[2-(2,4-Dichloro-phenyl)-ethylamino]-2-methoxy-pyrimidin-4-yl}-benzoic acid 2-(4-methyl-piperazin-1-yl)-ethyl ester] | 8.15
15 | COc1ccc(CCNc2cc(-c3ccc(OC)c(OC)c3)nc(OC(C)C)n2)cc1OC [Example 17(a), [2-(3,4-Dimethoxy-phenyl)-ethyl]-[6-(3,4-dimethoxy-phenyl)-2-isopropoxy-pyrimidin-4-yl]-amine] | 5.17
16 | COc1ccc(CCNc2cc(-c3ccc(OC)c(-c4nnn[nH]4)c3)nc(OC)n2)cc1 [Example 24(c), {2-Methoxy-6-[4-methoxy-3-(1H-tetrazol-5-yl)-phenyl]-pyrimidin-4-yl}-[2-(4-methoxy-phenyl)-ethyl]-amine] | 9.30
17 | COc1nc(NCCc2ccc(OC(F)(F)F)cc2)cc(-c2ccc(F)c(C(C)(C)C(=O)O)c2)n1 [Example 70, 2-(2-Fluoro-5-{2-methoxy-6-[2-(4-trifluoromethoxy-phenyl)-ethylamino]-pyrimidin-4-yl}-phenyl)-2-methyl-propionic acid] | 6.71
18 | COC(=O)c1cccc(Oc2cc(NCCc3ccc(OC)c(OC)c3)nc(OC)n2)c1 [Example (63), 3-{6-[2-(3,4-dimethoxy-phenyl)-ethylamino]-2-methoxy-pyrimidin-4-yloxy}-benzoic acid methyl ester] | 5.20
19 | COc1nc(NCC2OCCc3ccccc32)cc(-c2cccc(C(C)(C)C(=O)O)c2)n1 (stereo not shown) [Example 91, 2-(3-{6-[(Isochroman-1-ylmethyl)-amino]-2-methoxy-pyrimidin-4-yl}-phenyl)-2-methyl-propionic acid] | 7.64
20 | COC(=O)COc1cccc(-c2cc(NCCc3ccc(Cl)cc3Cl)nc(OC)n2)c1 [Example 22(c), (3-{6-[2-(2,4-Dichloro-phenyl)-ethylamino]-2-methoxy-pyrimidin-4-yl}-phenoxy)-acetic acid methyl ester] | 9.22
21 | COc1nc(NCCc2c(F)cccc2Cl)cc(-c2cccc(C=O)c2)n1 [Example 35(v), 3-{6-[2-(2-chloro-6-fluoro-phenyl)-ethylamino]-2-methoxy-pyrimidin-4-yl}-benzaldehyde] | 8.44
22 | COc1nc(NCCc2ccc(Cl)cc2Cl)cc(-c2ccc(Cl)c(C(C)(C)O)c2)n1 [Example 98, 2-(2-Chloro-5-{6-[2-(2,4-dichloro-phenyl)-ethylamino]-2-methoxy-pyrimidin-4-yl}-phenyl)-propan-2-ol] | 6.96
23 | COc1nc(NC2CCc3ccccc32)cc(-c2cccc(C(C)(C)C(=O)O)c2)n1 (stereo not shown) [Example 83(a), 2-{3-[6-(Indan-1-ylamino)-2-methoxy-pyrimidin-4-yl]-phenyl}-2-methyl-propionic acid] | 7.08
24 | COc1cccc(-c2cc(NCCc3c[nH]c4cc(OC)ccc34)nc(OC)n2)c1 [Example 43(g), [2-(6-Methoxy-1H-indol-3-yl)-ethyl]-[2-methoxy-6-(3-methoxy-phenyl)-pyrimidin-4-yl]-amine hydrochloride] | 6.98
25 | COc1nc(NCCc2ccc(F)cc2F)cc(-c2cccc(C(=O)O)c2)n1 [Example 7, 3-{6-[2-(2,4-Difluoro-phenyl)-ethylamino]-2-methoxy-pyrimidin-4-yl}-benzoic acid] | 9.10
26 | COc1nc(NCc2ccsc2)cc(-c2cccc(C(C)(C)C(=O)O)c2)n1 [Example 71, 2-(3-{2-Methoxy-6-[(thiophen-3-ylmethyl)-amino]-pyrimidin-4-yl}-phenyl)-2-methyl-propionic acid] | 6.41
27 | COc1nc(NCCc2ccc(Cl)cc2Cl)cc(-c2cccc(C(C)(C)C(=O)N3CCOCC3)c2)n1 [Example 95(c), 2-(3-{6-[2-(2,4-Dichloro-phenyl)-ethylamino]-2-methoxy-pyrimidin-4-yl}-phenyl)-2-methyl-1-morpholin-4-yl-propan-1-one] | 6.55
28 | COc1nc(NCCc2ccc3c(c2)OC(F)(F)O3)cc(-c2ccc[n+]([O-])c2)n1 [Example 21(b), [2-(2,2-Difluoro-benzo[1,3]dioxol-5-yl)-ethyl]-[2-methoxy-6-(1-oxy-pyridin-3-yl)-pyrimidin-4-yl]-amine] | 5.67
